Measurements taken from article PMC3776780, “Dual p38/JNK Mitogen Activated Protein Kinase Inhibitors Prevent Ozone-Induced Airway Hyperreactivity in Guinea Pigs” (PLoS ONE, 2013).

Columns and labels:
Assay in all cases: spectrophotometric coupled-enzyme kinase inhibition assay
Type in all cases: biochemical
EphA = conditions: read-out: Ki or IC50 EphA
In short: (§1)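 Steps: kinase (10–40 nM) plus inhibitor, 10 min at 30°C in HEPES pH 7.5 buffer containing PEP, NADH, pyruvate kinase, lactate dehydrogenase and EGF receptor peptide (200 µM–500 µM); start with ATP at Km; read 340 nm absorbance loss for 10 min; fit rate versus concentration for IC50 or Ki.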

JAK2 = JAK2 (Homo sapiens, UniProt O60674); conditions: read-out: Ki or IC50 JAK2
In short: as §1

TIE2 = TIE2 (Homo sapiens, UniProt Q02763); conditions: read-out: Ki or IC50 TIE2
In short: as §1

FLT3 = FLT3 (Homo sapiens, UniProt P36888); conditions: read-out: Ki or IC50 FLT3
In short: as §1

ITK = ITK (Homo sapiens, UniProt Q08881); conditions: read-out: Ki or IC50 ITK
In short: as §1

FAK = FAK (Homo sapiens, UniProt Q05397); conditions: read-out: Ki or IC50 FAK
In short: as §1

COT = COT (Homo sapiens, UniProt P41279); conditions: read-out: Ki or IC50 COT
In short: as §1

PDK1 = PDK1 (Homo sapiens, UniProt O15530); conditions: read-out: Ki or IC50 PDK1
In short: as §1

LCK = LCK (Homo sapiens, UniProt P06239); conditions: read-out: Ki or IC50 LCK
In short: as §1

Chain of PDK1 (O15530 whole entry): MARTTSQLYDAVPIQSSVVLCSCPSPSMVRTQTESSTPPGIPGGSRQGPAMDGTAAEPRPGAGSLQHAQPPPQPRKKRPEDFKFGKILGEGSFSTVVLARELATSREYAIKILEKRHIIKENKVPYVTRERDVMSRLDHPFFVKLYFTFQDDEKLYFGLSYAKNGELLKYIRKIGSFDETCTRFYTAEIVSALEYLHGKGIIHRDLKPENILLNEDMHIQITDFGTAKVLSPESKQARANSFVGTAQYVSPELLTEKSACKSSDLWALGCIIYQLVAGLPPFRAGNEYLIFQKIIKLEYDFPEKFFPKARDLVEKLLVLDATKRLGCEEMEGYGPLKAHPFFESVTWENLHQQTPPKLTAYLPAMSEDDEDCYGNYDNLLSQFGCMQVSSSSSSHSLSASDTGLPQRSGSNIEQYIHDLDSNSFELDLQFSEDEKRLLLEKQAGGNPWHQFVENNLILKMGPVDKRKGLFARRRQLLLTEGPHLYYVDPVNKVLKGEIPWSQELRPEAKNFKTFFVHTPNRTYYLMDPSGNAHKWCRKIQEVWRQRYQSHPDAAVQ
Chain of TIE2 (Q02763 23-1124, species assumed): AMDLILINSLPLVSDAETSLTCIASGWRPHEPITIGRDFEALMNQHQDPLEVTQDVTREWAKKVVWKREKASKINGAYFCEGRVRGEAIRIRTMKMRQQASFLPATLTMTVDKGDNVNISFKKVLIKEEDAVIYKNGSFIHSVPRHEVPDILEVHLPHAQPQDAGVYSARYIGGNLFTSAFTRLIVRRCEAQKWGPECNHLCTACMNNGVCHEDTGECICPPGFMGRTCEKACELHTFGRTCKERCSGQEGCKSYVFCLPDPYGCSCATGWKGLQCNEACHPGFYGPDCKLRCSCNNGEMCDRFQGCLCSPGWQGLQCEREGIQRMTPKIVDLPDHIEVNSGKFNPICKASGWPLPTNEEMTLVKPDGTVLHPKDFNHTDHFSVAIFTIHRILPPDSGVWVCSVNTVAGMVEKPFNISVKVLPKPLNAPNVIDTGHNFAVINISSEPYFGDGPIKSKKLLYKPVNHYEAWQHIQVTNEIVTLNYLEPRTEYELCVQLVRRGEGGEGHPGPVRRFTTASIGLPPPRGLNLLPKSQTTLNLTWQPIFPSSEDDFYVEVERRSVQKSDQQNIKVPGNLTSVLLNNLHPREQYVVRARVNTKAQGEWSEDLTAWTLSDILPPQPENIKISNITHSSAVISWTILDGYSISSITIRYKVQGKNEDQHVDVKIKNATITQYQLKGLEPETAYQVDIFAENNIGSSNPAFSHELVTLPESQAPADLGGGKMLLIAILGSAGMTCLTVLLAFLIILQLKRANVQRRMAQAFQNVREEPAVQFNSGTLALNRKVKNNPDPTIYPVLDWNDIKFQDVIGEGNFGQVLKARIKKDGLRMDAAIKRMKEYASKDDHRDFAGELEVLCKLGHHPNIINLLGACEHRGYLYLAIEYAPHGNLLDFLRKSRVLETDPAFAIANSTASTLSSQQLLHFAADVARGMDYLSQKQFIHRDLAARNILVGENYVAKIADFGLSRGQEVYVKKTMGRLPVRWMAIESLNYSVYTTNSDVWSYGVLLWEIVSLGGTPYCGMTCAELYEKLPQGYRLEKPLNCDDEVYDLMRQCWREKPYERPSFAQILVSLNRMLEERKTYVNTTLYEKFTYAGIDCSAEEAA
Chain of FLT3 (P36888 27-993, species assumed): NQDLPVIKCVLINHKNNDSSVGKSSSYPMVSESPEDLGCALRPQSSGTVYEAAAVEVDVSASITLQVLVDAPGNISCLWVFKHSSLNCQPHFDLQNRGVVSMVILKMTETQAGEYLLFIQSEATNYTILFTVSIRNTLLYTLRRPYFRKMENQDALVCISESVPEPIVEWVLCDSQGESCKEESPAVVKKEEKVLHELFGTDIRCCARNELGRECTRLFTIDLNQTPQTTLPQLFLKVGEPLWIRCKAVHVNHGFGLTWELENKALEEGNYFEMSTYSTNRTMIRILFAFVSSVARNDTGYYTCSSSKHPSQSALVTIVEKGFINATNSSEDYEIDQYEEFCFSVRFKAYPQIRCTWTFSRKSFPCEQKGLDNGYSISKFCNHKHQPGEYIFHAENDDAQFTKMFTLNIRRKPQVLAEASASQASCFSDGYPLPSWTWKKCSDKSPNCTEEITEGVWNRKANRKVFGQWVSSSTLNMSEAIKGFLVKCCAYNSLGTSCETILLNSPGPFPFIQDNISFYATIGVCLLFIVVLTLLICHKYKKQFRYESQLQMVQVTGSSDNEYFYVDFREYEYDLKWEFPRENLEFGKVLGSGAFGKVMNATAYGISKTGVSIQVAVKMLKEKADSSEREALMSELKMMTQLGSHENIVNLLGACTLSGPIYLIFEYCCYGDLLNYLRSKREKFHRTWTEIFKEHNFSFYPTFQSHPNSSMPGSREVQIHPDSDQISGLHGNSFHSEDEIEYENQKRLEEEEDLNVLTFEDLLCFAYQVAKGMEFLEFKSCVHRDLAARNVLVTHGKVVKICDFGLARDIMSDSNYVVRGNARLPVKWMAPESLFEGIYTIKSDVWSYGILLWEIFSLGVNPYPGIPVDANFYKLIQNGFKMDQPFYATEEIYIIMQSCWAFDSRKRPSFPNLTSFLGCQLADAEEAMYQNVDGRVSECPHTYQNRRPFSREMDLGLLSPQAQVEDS
Chain of JAK2 (O60674 whole entry, species assumed): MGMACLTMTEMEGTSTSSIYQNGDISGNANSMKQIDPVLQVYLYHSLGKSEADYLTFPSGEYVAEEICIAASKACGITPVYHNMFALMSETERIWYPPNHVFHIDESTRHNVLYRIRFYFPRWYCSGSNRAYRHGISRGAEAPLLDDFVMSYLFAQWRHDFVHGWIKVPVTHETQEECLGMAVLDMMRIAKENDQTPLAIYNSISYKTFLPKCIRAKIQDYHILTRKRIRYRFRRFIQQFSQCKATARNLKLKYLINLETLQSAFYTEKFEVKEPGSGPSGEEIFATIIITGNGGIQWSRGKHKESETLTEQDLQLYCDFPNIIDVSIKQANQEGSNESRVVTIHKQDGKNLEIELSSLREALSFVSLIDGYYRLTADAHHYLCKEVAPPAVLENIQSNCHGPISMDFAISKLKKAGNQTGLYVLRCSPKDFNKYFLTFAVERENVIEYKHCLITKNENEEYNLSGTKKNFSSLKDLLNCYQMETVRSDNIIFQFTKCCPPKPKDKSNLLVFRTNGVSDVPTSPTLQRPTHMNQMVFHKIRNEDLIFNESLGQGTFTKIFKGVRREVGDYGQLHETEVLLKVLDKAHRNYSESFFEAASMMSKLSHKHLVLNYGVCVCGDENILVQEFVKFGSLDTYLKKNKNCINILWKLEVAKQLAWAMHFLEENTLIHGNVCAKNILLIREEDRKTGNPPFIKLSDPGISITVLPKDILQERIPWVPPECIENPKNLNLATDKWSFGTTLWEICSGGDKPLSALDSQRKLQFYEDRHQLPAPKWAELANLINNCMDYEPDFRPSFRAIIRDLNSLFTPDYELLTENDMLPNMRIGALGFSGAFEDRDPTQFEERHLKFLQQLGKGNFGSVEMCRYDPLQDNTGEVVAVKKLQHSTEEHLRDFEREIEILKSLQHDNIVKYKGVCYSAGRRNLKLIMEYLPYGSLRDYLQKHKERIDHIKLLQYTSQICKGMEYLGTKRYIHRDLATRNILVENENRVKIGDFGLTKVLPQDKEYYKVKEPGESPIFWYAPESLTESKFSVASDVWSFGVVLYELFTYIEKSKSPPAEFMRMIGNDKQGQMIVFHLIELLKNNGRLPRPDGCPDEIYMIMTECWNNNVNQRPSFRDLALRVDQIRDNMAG
Chain of LCK (P06239 whole entry, species assumed): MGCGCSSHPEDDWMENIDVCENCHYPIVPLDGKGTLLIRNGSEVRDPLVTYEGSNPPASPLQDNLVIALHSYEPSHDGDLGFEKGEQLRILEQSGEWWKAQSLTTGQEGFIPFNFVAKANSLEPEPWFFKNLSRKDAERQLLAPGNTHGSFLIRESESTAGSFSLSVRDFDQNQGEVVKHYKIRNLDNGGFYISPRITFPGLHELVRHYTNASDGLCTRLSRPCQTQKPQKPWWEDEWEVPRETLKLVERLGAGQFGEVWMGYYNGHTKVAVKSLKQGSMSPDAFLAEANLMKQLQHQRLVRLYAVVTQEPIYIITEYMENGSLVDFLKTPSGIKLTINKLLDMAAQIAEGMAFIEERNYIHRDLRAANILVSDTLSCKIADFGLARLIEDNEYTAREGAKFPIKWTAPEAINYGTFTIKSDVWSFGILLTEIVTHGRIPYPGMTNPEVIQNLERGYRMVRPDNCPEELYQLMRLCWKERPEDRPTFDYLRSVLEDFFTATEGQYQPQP
Chain of COT (P41279 whole entry): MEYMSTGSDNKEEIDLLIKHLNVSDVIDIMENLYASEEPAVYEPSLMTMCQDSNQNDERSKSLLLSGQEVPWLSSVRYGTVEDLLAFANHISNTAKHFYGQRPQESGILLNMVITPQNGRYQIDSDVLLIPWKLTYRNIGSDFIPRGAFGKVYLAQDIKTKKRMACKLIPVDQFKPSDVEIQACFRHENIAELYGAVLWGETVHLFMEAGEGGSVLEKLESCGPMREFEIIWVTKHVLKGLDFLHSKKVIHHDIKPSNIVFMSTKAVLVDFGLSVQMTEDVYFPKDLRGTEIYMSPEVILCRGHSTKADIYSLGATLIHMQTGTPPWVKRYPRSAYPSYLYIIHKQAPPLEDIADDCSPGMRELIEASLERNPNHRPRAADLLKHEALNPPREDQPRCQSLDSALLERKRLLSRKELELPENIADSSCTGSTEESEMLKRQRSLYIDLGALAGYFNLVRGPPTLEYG

| Ki (EphA) [nM] | Ki (JAK2) [nM] | Ki (TIE2) [nM] | Ki (FLT3) [nM] | Ki (ITK) [nM] | Ki (FAK) [nM] | Ki (COT) [nM] | Ki (PDK1) [nM] | Ki (LCK) [nM] | Structure (SMILES) |
| --- | --- | --- | --- | --- | --- | --- | --- | --- | --- |
| > 1000 | > 1000 | > 1000 | > 1000 | > 1000 | – | – | – | – | OC1CCN(Cc2onc(-c3ccc(F)cc3)c2-c2ccnc(NC3CCCCC3)n2)CC1 [V-05-013] |
| > 1000 | – | > 1000 | – | – | > 1000 | > 1000 | > 1000 | > 1000 | OC[C@@H]1CCCN1Cc1onc(-c2ccc(F)cc2)c1-c1ccnc(NC2CCCCC2)n1 [V-05-014] |
| – | > 1000 | – | > 1000 | – | – | – | > 1000 | > 1000 | Fc1ccc(-c2noc(CN3CCCCC3)c2-c2ccnc(NC3CCCCC3)n2)cc1 [V-05-015] |
